The record followed here is US11478011B2, “Nutritional compositions and infant formula for promoting de novo myealination” (NESTEC S.A., priority 2015, dated 2022).

Assay [1] has as its system brain myelination (myelin water fraction) of children up to 5 years of age. Kind of assay: Correlation analysis between infant formula nutrient composition and brain myelination (mcDESPOT MRI myelin water fraction). In kind it is in vivo, human. As to conditions: formula-fed children up to 5 years; brain regions listed in the block; FIG. 1b-1p. Here is the method:
MRI (Magnetic Resonance Imaging): MRI brain scans of infants and children between 0 and 5 years were acquired using a white matter imaging technique. This technique provides a quantitative measure, the Myelin Water Fraction (MWF), which is a surrogate marker of myelin content in the brain. When mapped as a function of time across early childhood, myelination trajectories can be generated.
Infant formula composition: six infant formulas fed to infants participating in a study were analyzed for their composition/level of myelin-relevant nutrients.
Infants included in this study were drawn from a larger longitudinal study of normal brain and behavioral development: the Brown University Assessment of Myelination and Behavior Across Maturation (BAMBAM). To focus on neurotypical development, children with known potential risk factors for learning, neurologic, or psychiatric disorders were specifically excluded during recruitment and enrollment. Thus, children with in utero alcohol or illicit substance exposure, premature (<37 weeks gestation) or multiple birth, fetal ultrasound abnormalities, complicated pregnancy (e.g., preeclampsia), APGAR scores <8, NICU admission, neurological disorder (e.g., head injury, epilepsy), psychiatric or developmental disorders in the infant, parents or siblings (including maternal depression requiring medication) were excluded. Ongoing screenings, such as the MCAT for autism, or CBCL for behavioral problems, were further used to remove enrolled children with clinically concerning behaviors or overt medical conditions (such as autism spectrum disorders).
A combination of retrospective and prospective data were acquired from parents via detailed medical histories and parental interview on the type of infant formula used, percentage of breastfeeding to formula feeding, and length of exclusive breastfeeding. This information was updated at each study visit, which occurred approximately every 6 months for children under 2 years, and yearly for older children. Using this information, children were categorized into one of 2 groups: #1. Exclusively formula-fed; and #2. Exclusively breastfed for at least 90 days (3 months). Children who were fed a combination of breastmilk and formula within 3 months were excluded from our analysis. Infants within the exclusively formula-fed group were further sub-divided based on parental reports of the main infant formula used throughout the first 3 months. Main formula was defined as that given 90% of the time or more (in the case were parents used an alternate brand during vacation, for example).
Using these criteria, 94 exclusively formula-fed infants and young children were selected into group #1. These included 13 children who received formula #2; 28 who received formula #5; 8 who received formula #3; 39 who received formula #4; 5 who received formula #1 and 1 who received formula #6. A sample of 52 exclusively breast-fed infants were also selected and matched to the over formula-fed group with regards to mean age, gestation duration, birth weight, male:female ratio, ethnicity ratio, maternal education, family size, and number of languages spoken in the home (in addition to English).
Each infant was scanned using the mcDESPOT (multicomponent Driven Equilibrium Single Pulse Observation of T1 and T2) white matter imaging technique Deoni et al. (Magn. Reson. Med. 2008, 60:1372-1387), which provides a quantitative measure of the myelin water fraction (MWF)—a measure of myelin content—at each point throughout the brain. All infants were scanned during natural (i.e. non-sedated) sleep using acoustically-muffled mcDESPOT imaging protocols. Total imaging times ranged from 19 minutes for the youngest toddlers to 24 minutes for the older 4 year-old children.

In assay [2] the test system is Neural Progenitor Cell (NPCs) from E14 mouse neocortex. The experiment in a line: Neurosphere counts in 96-well plates. In kind it is cell-based. As to conditions: Low dose (Dose 1: 10 nM); grown for 2 days; control 103. Here is the method: (§1) Media Compositions and Culture Methods 1) Neurobasal Complete Media Neurobasal media (LIFE TECHNOLOGIES CORP, #21103-049) 50× B27 supplement (LIFE TECHNOLOGIES CORP, #12587-010) 2 mM L-Glutamine (LIFE TECHNOLOGIES CORP, #25030-149) 1× Pen-Strep (LIFE TECHNOLOGIES CORP, #15140-122) 2) Neurobasal Media Complete with Growth Factors (GF) Above recipe with GF mix 1M Tris (MW 121.14, Fisher SCI BP152) Heparin (sigma H3149) BSA (Sigma A7030) DNAse, RNase, Protease free water (Fisher SCI AC327390010) EGF (GIBCO PHG0311) bFGF vial (GIBCO PHG0021) 3) Neurobasal Media No Choline (Life Technologies, Formulated Custom, No L-Glutamine, no phenol red) Note: complete and complete with GF made the same as above. Generation of Neural Progenitor Cell (NPCs) Libraries: dissociation of E14 mouse neocortex Reagents Needed: DPBS (1×)+10% Pen/Strep Neurobasal media/10% Pen/Strep/10× Hepes Procedure:
E14 pup brains were harvested and placed in ice cold DPBS (1×)+10% Pen/Strep, then they were dissected using a dissecting microscope. From each pup, one brain hemisphere was placed in 2 ml of Neurobasal media/10% P/S/10× Hepes and another brain hemisphere was placed in another tube.
The tissue from each tube was aseptically and manually dissociate into single cells, neurobasal complete medium was added and centrifuged at 130 G for 5 min. […]

For assay [3] the test system is unchanged. Kind of assay: Monolayer culture NPC proliferation assay. In kind it is cell-based. The settings on record: low dose (Dose 1: 10 nM); 3 days; control 262. Here is the method: as §1
E14 pup brains were harvested and placed in ice cold DPBS (1×)+10% Pen/Strep, then they were dissected using a dissecting microscope. From each pup, one brain hemisphere was placed in 2 ml of Neurobasal media/10% P/S/10× Hepes and another brain hemisphere was placed in another tube. […]
EDU incorporation was measured using Click-iT® EdU Alexa Fluor® 555 Imaging Kit (Life technologies, #c10338). […]

As for phosphatidylcholine, in assay [1], the “association of nutrient with myelination (myelin water fraction) over time in the brain” value is listed as “association with myelination (myelin water fraction) was observed over time in the brain”.

Consider vitamin B12, for which the “association of nutrient with myelination (myelin water fraction) over time in the brain” value in assay [1] is recorded as “association with myelination (myelin water fraction) was observed over time in the brain”.

For `CCCCC/C=C\C/C=C\C/C=C\C/C=C\CCCC(=O)O` [AA, arachidonic acid], the “association of nutrient with myelination (myelin water fraction) over time in the brain” value in assay [1] is recorded as “association with myelination (myelin water fraction) was observed over time in the brain”.

As for `[Ca+2]` [calcium], the “association of nutrient with myelination (myelin water fraction) over time in the brain” value in assay [1] is on record as “association with myelination (myelin water fraction) was observed over time in the brain”.

`[Zn]` [zinc]: the “association of nutrient with myelination (myelin water fraction) over time in the brain” value in assay [1] is recorded as “association with myelination (myelin water fraction) was observed over time in the brain”.

As for `[P]` [phosphorus], the “association of nutrient with myelination (myelin water fraction) over time in the brain” value in assay [1] is given as “association with myelination (myelin water fraction) was observed over time in the brain”.

For iron, the “association of nutrient with myelination (myelin water fraction) over time in the brain” value in assay [1] is “association with myelination (myelin water fraction) was observed over time in the brain”.

`[Mg+2]` [magnesium]: the “association of nutrient with myelination (myelin water fraction) over time in the brain” value in assay [1] was “association with myelination (myelin water fraction) was observed over time in the brain”.

For Sphingomyelin, in assay [2], the “number of neurospheres, Average (Mean)” value was found to be 94. For the same compound, in assay [3], the “neuronal proliferation, DAPI” value is on record as 280. Moreover, the “association of nutrient with myelination (myelin water fraction) over time in the brain” value in assay [1] is on record as “association with myelination (myelin water fraction) was observed over time in the brain”.

Regarding phosphatidylinositol, the “association of nutrient with myelination (myelin water fraction) over time in the brain” value in assay [1] is recorded as “association with myelination (myelin water fraction) was observed over time in the brain”.
